Experimental data taken from ChEMBL document CHEMBL3045284 (Crop Prot, 2009).

Legend:
Assay type in all cases: functional
[1] = test system: Pyricularia oryzae; experiment: Antifungal activity against Magnaporthe oryzae infected six-leaf stage of rice plant assessed susceptible lesion number per leaf area at 2 time MIC treated 24 hr before fungal infection measured after 24 hr
[2] = test system: Pyricularia oryzae; experiment: Antifungal activity against Magnaporthe oryzae infected six-leaf stage of rice plant assessed susceptible lesion number per leaf area at MIC treated 24 hr before fungal infection measured after 24 hr
[3] = test system: Pyricularia oryzae; experiment: Antifungal activity against Magnaporthe oryzae infected six-leaf stage of rice plant assessed as disease recovery at MIC treated 24 hr before fungal infection measured after 24 hr
[4] = test system: Pyricularia oryzae; experiment: Antifungal activity against drug-sensitive Magnaporthe oryzae infected six-leaf stage of rice plant assessed susceptible lesion number per leaf area treated 24 hr before fungal infection measured after 24 hr
[5] = test system: Pyricularia oryzae; experiment: Antifungal activity against drug-sensitive Magnaporthe oryzae infected six-leaf stage of rice plant assessed as reduction of disease recovery at 2 time MIC treated 24 hr before fungal infection measured after 6 days relative to control; set-up: scale not given: the % may be the effect or the level left
[6] = test system: Pyricularia oryzae; experiment: Antifungal activity against Magnaporthe oryzae infected six-leaf stage of rice plant assessed as disease recovery at 4 time MIC treated 24 hr before fungal infection measured after 24 hr
[7] = test system: Pyricularia oryzae; experiment: Antifungal activity against Magnaporthe oryzae infected six-leaf stage of rice plant assessed susceptible lesion number per leaf area at 4 time MIC treated 24 hr before fungal infection measured after 24 hr
[8] = test system: Pyricularia oryzae; experiment: Antifungal activity against drug-sensitive Magnaporthe oryzae infected six-leaf stage of rice plant assessed as disease recovery treated 24 hr before fungal infection measured after 24 hr
[9] = test system: Pyricularia oryzae; experiment: Antifungal activity against drug-sensitive Magnaporthe oryzae infected six-leaf stage of rice plant assessed as reduction of susceptible lesion number per leaf area at 2 time MIC treated 24 hr before fungal infection measured after 6 days relative to control; set-up: scale not given: the % may be the effect or the level left
[10] = test system: Pyricularia oryzae; experiment: Antifungal activity against Magnaporthe oryzae infected six-leaf stage of rice plant assessed susceptible lesion number per leaf area at 8 time MIC treated 24 hr before fungal infection measured after 24 hr
[11] = test system: Pyricularia oryzae; experiment: Antifungal activity against Magnaporthe oryzae infected six-leaf stage of rice plant assessed as disease recovery at 2 time MIC treated 24 hr before fungal infection measured after 24 hr
[12] = test system: Pyricularia oryzae; experiment: Antifungal activity against Magnaporthe oryzae infected six-leaf stage of rice plant assessed as disease recovery at 8 time MIC treated 24 hr before fungal infection measured after 24 hr

| SMILES | Activity [1] [cm2] | Activity [2] [cm2] | Activity [3] [%] | Activity [4] [cm2] | Activity [5] [%] | Activity [6] [%] | Activity [7] [cm2] | Activity [8] [%] | Activity [9] [%] | Activity [10] [cm2] | Activity [11] [%] | Activity [12] [%] |
| --- | --- | --- | --- | --- | --- | --- | --- | --- | --- | --- | --- | --- |
| CCOP(=O)(Sc1ccccc1)Sc1ccccc1 [EDIFENPHOS] | 0.14 | 0.19 | 0.49 | 0.1 | 55.6 | 0.18 | 0.07 | 0.27 | 63.5 | 0.03 | 0.35 | 0.08 |
| CC(C)OP(=O)(OC(C)C)SCc1ccccc1 [IPROBENFOS] | 1.13 | 1.28 | 1.23 | 0.73 | 28.8 | 0.87 | 0.93 | 0.8 | 28.1 | 0.39 | 1.17 | 0.45 |
